Where a name gives a salt, the structure may show the parent alone. Read-outs that look alike come from different tables or passages of the source.

Holding throughout (type): cell-based, human
Test [1] deals with RAG02 (derived from fibroblasts of the patient's parent). As to the kind of experiment: CellTiter-Glo assay in RAG02 control cell line. Conditions: 1 μM control, 72 hours. As for the experimental part:
(§1) Compounds described herein were tested in three cell lines, RAG01 (derived from fibroblasts of a patient diagnosed with SSMD) fibroblasts, RAG02 (derived from fibroblasts of the patient's parent), and GM09503 (from supplier Corriell) (derived from a healthy donor) to each generate 10-point concentration response curves (CRC). The three cell lines were each thawed seven (7) days prior to seeding. The RAG01 cells were thawed in a medium supplemented with a-tocopherol. Cells were passaged four (4) days prior to the seeding. The α-tocopherol was removed from the RAG01 cells. Cells were then seeded at 900 cells per well in 384-well plates. Two replicates were prepared for two independent (replicate) experiments. All plates were then incubated with compounds described herein for 72 hours, prior to CellTiter-Glo assay. The compounds were tested in 10-point concentration (CRCs) from 10 μM using 3.16×(half Log) dilutions. The assay was run using the CellTiter-Glo (Promega) following manufacturer's guidelines and luminescent spectrophotometric reading on PHERAstar FSX (BMG Labtech). […]
(§2) The raw data was analyzed using Activity Base® software. The compounds were evaluated by efficacy (percentage effect) normalized to the vehicle control. The percentage effect (PE) was determined from the signal increase in comparison to the vehicle control according to the formula below: […]
Background: ATP-based viability assays read luminescence as a measure of living cells.

For test [2], the system named is GM09503 (derived from a healthy donor). As to the kind of experiment: CellTiter-Glo assay in GM09503 control cell line. As to conditions: 1 μM control, 72 hours. How it is done:
as §1, §2

Test [3] concerns RAG01 (derived from fibroblasts of a patient diagnosed with SSMD) fibroblasts. As to the kind of experiment: CellTiter-Glo concentration response in RAG01 fibroblasts. As for the experimental part:
Compounds described herein were tested in three cell lines, RAG01 (derived from fibroblasts of a patient diagnosed with SSMD) fibroblasts, RAG02 (derived from fibroblasts of the patient's parent), and GM09503 (from supplier Corriell) (derived from a healthy donor) to each generate 10-point concentration response curves (CRC). The three cell lines were each thawed seven (7) days prior to seeding. The RAG01 cells were thawed in a medium supplemented with a-tocopherol. Cells were passaged four (4) days prior to the seeding. The α-tocopherol was removed from the RAG01 cells. Cells were then seeded at 900 cells per well in 384-well plates. Two replicates were prepared for two independent (replicate) experiments. All plates were then incubated with compounds described herein for 72 hours, prior to CellTiter-Glo assay. […] The assay was run using the CellTiter-Glo (Promega) following manufacturer's guidelines and luminescent spectrophotometric reading on PHERAstar FSX (BMG Labtech). A 0.1% dimethylsulfoxide (DMSO) was used as a blank (vehicle control); and a 1 μM Ferrostatin-1 was used as a control (CTRL).
as §2
The percentage effect values were then plotted against log concentration of the drug to generate a concentration response curve. The curves were fitted using a four-parameter fit, and curve tops and hillslopes were fixed where required and justified.

The mark [4] stands for this setting: Homo sapiens, Fibroblast, RAG01 cell line, 72 hours incubation, CellTiter-Glo, percentage effect normalized to vehicle control, 10-point CRC from 10 μM, read-out: EC50.

With `CCOC(=O)c1ccc(NC2CCCCC2)c(N)c1` [Ferrostain-1, Ferrostatin-1], in test [1], the “effect of control compound on RAG02 cells” value is “No effect”. Further, the “effect of control compound on GM09503 cells” value in test [2] is given as “No effect”. In the case of `CC(=O)Oc1cc(C(C)C)c(OCCN(C)C)cc1C` [compound 30, Moxisylyte], in test [3] (setting [4]), the EC50 was 0.739 µM. Still for that read-out and setting: to `COc1ccc2c(c1)N(C[C@H](C)CN(C)C)c1ccccc1S2` [compound 49, Levomepromazine] belongs 3.21 µM. On the same count and under the same terms, the result for `C=CCc1ccc(O)c(-c2ccc(O)c(CC=C)c2)c1` [compound 12, honokiol] reads 1.21 µM; that for `Oc1cc2c(cc1O)C(c1ccccc1)CNCC2` (stereo not shown) [compound 38, SKF-38,393], 4.31 µM; that for `CO[C@H]1/C=C/O[C@@]2(C)Oc3c(C)c(O)c4c(O)c(c5c(nc6cc(C)ccn65)c4c3C2=O)NC(=O)/C(C)=C\C=C\[C@H](C)[C@H](O)[C@@H](C)[C@@H](O)[C@@H](C)[C@H](OC(C)=O)[C@@H]1C` [compound 64, rifaximin], 0.708 µM. For `C=CC(=O)Nc1cccc(Oc2nc(Nc3ccc(N4CCN(C)CC4)cc3)nc3ccsc23)c1` [compound 70, Olmutinib], the EC50 in test [3] (setting [4]) is 0.485 µM. Regarding `Cc1cc(C(C)(C)C)c(O)c(C)c1CC1=NCCN1` [compound 31, oxymetazoline], the EC50 in test [3] (setting [4]) came to 1.46 µM.

With `CC(CN(C)C)CN1c2ccccc2Sc2ccccc21` (stereo not shown) [compound 47, trimeprazine], in test [3] (setting [4]), the EC50 was determined as 1.67 µM. As to `COC(=O)c1cc2c(C(F)(F)F)cc(-c3ccccc3)cc2n1O` [compound 100, NHI-2], the EC50 in test [3] (Homo sapiens, Fibroblast, 72 h) was found to be 1.31 µM. Regarding `CC(Cc1ccc(O)c(O)c1)C(C)Cc1ccc(O)c(O)c1` (stereo not shown) [compound 24, Nordihydroguaiaretic acid], in test [3] (setting [4]), the EC50 worked out at 2.49 µM. On the same count and under the same terms, to `CN1CCN2c3c(cccc31)[C@@H]1CN(CCCC(=O)c3ccc(F)cc3)CC[C@@H]12` [compound 32, lumateperone] belongs 0.636 µM; to `COc1ccc(CC2NCCc3c2[nH]c2ccc(C)cc32)c(Cl)c1OC` (stereo not shown) [compound 53, LY-266,097], 2.71 µM. Same read-out and setting: to `Oc1ccc2c3c1O[C@H]1c4oc5ccccc5c4C[C@@]4(O)[C@@H](C2)N(CC2CC2)CC[C@]314` [compound 55, Naltriben] belongs 1.32 µM; to `O=C(CN1CCN(Cc2ccc3c(c2)OCO3)CC1)N1c2ccccc2Sc2ccccc21` [compound 46, fenoverine], 1.5 µM. As for `CN1CCCC(CN2c3ccccc3Sc3ccccc32)C1` (stereo not shown) [compound 48, mepazine], the EC50 in test [3] (setting [4]) came out at 1.84 µM. Consider `CC(c1cc2ccccc2s1)N(O)C(N)=O` (stereo not shown) [compound 15, Zileuton], for which the EC50 in test [3] (setting [4]) was 1.87 µM.

As to `Cc1nn(C)c2nc(NNC(=O)Nc3cc(Cl)nc(Cl)c3)cc(C(C)C)c12` [compound 106, JTE-013], the EC50 in test [3] (setting [4]) came out at 2.47 µM.

Consider `CC1(C)CNc2cc(NC(=O)c3cccnc3NCc3ccncc3)ccc21` [compound 86, Motesanib], for which, in test [3] (setting [4]), the EC50 came to 1.46 µM. On the same count and under the same terms, to `CC(C)(C=O)Cc1cc(C(C)(C)C)c(O)c(C(C)(C)C)c1` [compound 59, 3-(3,5-Ditert-butyl-4-hydroxyphenyl)-2,2-dimethylpropanal] belongs 0.928 µM; to `COc1ccc2c(c1)c(C1=C(c3c[nH]c4ccccc34)C(=O)NC1=O)cn2CCCN(C)C` [compound 74, Go 6983], 0.764 µM.

With `COc1ccc2c(c1)CN(C)CC2c1ccc(Cl)c(Cl)c1` (stereo not shown) [compound 62, Diclofensine], the EC50 in test [3] (setting [4]) turned out to be 3.85 µM. Still for that read-out and setting: the result for `COc1cc(/C=C/c2ccc(O)cc2)cc(OC)c1` [compound 23, pterostilbene] reads 1.61 µM; that for `COc1cc(C[C@H](C)[C@H](C)Cc2ccc3c(c2)OCO3)ccc1O` [compound 25, macelignan], 2.86 µM; that for `COc1ccccc1OCCNCC(O)COc1cccc2[nH]c3ccccc3c12` (stereo not shown) [compound 28, carvedilol], 4.91 µM. For `O=C(c1ccc(OCCN2CCCCC2)cc1)c1c(-c2ccc(O)cc2)sc2cc(O)ccc12` [compound 5, raloxifene], in test [3] (setting [4]), the EC50 turned out to be 0.458 µM. Still for that read-out and setting: the result for `COc1ccc(Nc2ccn(-c3ccccc3)n2)cc1` [compound 9, FPL 62064] reads 0.053 µM; that for `COc1ccc2c3c([nH]c2c1)[C@H](CC(C)C)N1C(=O)[C@H](CCC(=O)OC(C)(C)C)NC(=O)[C@@H]1C3` [compound 109, Ko 143], 3.94 µM. Turning to `CCCN(CCc1cccs1)[C@H]1CCc2c(O)cccc2C1` [compound 41, rotigotine], the EC50 in test [3] (setting [4]) is 3.95 µM.

Regarding `NC[C@@H]1O[C@H](C23CC4CC(CC(C4)C2)C3)Cc2c1ccc(O)c2O` [compound 39, A77636], in test [3] (RAG01 cell line, 72 hours incubation, CellTiter-Glo, percentage effect normalized to vehicle control, 10-point CRC from 10 μM, read-out: EC50), the EC50 was found to be 0.652 µM. Turning to `Brc1cc2c(cc1[C@@H]1Nc3ccccc3[C@@H]3C=CC[C@@H]31)OCO2` [compound 7, G-15], the half-maximal effective concentration (EC50) in test [3] (setting [4]) amounted to 1.66 µM.

On to `Cc1cccc(Nc2nc(-c3ccncc3)cs2)c1` [compound 95, STF-62247], for which the EC50 in test [3] (setting [4]) is 0.739 µM. As for `COC(=O)C1=C(C)NC(C)=C(C(=O)OCCN2CCN(C(c3ccccc3)c3ccccc3)CC2)C1c1cccc([N+](=O)[O-])c1` (stereo not shown) [compound 2, manidipine], the EC50 in test [3] (setting [4]) was found to be 2.9 µM. The same measure, in the same setting: the result for `CC(=O)Oc1c(C)cc(OCC(O)CNC(C)C)c(C)c1C` (stereo not shown) [compound 26, metipranolol] reads 0.403 µM; that for `CC(C)(C)CC(C)(C)c1ccc(O)c(Cc2ccc(Cl)cc2Cl)c1` [compound 65, clofoctol], 2.23 µM; that for `CCNCc1cc(C(C)(C)C)c(O)c(C(C)(C)C)c1` [compound 17, LY 231617], 7.36 µM. Still for that read-out and setting: to `Oc1ccc2c3c1OC1c4c(c5ccccc5n4Cc4ccccc4)C[C@@]4(O)C(C2)N(CC2CC2)CC[C@]314` (stereo partly shown) [compound 54, N-Benzylnaltrindole HCl] belongs 0.381 µM; to `Cc1[nH]c(/C=C2\C(=O)Nc3cc(-c4ccccc4)ccc32)c(C)c1CCC(=O)O` [compound 101, su-16f], 1.38 µM; to `CN1CCN(Cc2ccc(-c3cnc4[nH]cc(-c5ccc6[nH]ccc6c5)c4c3)cc2)CC1` [compound 75, URMC-099], 0.377 µM. On the same count and under the same terms, the result for `O=C1c2cccnc2C(=O)C(NCCN2CCOCC2)C1Cl` (stereo not shown) [compound 91, NSC 663284] reads 0.268 µM; that for `NC(=O)c1nc(Nc2ccccc2)sc1NC(=O)C1CCCCC1` [compound 85, UNC-3230], 1.24 µM; that for `O=C1C=Cc2cc(Br)ccc2C1=O` [compound 99, bonaphthone], 1.27 µM. Consider `Cc1c(-c2ccc(O)cc2)n(Cc2ccc(OCCN3CCCCCC3)cc2)c2ccc(O)cc12` [compound 3, bazedoxifene], for which, in test [3] (setting [4]), the EC50 was found to be 0.24 µM. Same read-out and setting: to `CC(C)NCC(O)COc1cccc2[nH]c3ccccc3c12` (stereo not shown) [compound 27, carazolol] belongs 3.11 µM; to `CCc1cc2c(cc1CC)CC(NC[C@H](O)c1ccc(O)c3[nH]c(=O)ccc13)C2` [compound 29, indacaterol], 1.39 µM.

As usually defined, the EC50 is the concentration needed to bring the measured effect to its halfway point.

Source of the values: patent US20230414628A1, “METHODS FOR TREATING DISEASES MEDIATED BY GLUTATHIONE PEROXIDASE 4” (priority 2022, published 2023).
